Biological target: T1, human A1 adenosine receptors (Homo sapiens, UniProt P30542)
T1 construct: expressed in transfected cells; host or cells: CHO cells (membranes)
T1 sequence (P30542 1-326): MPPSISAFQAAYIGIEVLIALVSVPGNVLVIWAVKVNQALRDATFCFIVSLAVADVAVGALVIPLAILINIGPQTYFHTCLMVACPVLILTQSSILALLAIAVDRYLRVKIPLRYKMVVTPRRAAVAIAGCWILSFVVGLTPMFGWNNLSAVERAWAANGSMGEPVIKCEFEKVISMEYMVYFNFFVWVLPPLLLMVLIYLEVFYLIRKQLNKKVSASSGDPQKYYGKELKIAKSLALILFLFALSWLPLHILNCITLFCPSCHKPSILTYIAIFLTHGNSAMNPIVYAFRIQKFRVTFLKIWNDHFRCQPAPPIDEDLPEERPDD
Assay: Displacement of [3H]DPCPX binding at human A1 adenosine receptors expressed in CHO cells
Settings: [3H]DPCPX displacement, n = 3-6, geometric mean (95% confidence limits), read-out: Ki hA1
Description: The human adenosine receptors have been transfected in CHO cells according with the method previously described by Klotz et al. (Naunyn-Schmied. Arch Pharm. 1998, 357: 1-9). Briefly, the cells are grown adherently and maintained in Dulbecco's Modified Eagles Medium with nutrient mixture F12 (DMEM/F12) without nucleosides, containing 10% fetal calf serum, penicillin (100 U/mL), streptomycin (100 μg/mL), L-glutamine (2 mM) and Geneticin (G418, 0.2 mg/ml) at 37° C. in 5% CO2/95% air. For membrane preparation the culture medium is removed and the cells are washed with phosphate-buffered saline and scraped off T75 flasks in ice-cold hypo tonic buffer (5 mM Tris HCl, 1 mM EDTA, pH 7.4). The cell suspension is homogenized with Polytron, the homogenate is spun for 10 min at 1000×g and the supernatant is then centrifuged for 30 min at 100,000×g. The membrane pellet is suspended in 50 mM Tris HCl buffer (pH 7.4) for A1 adenosine receptors, in 50 mM Tris HCl, 10 mM MgCl2 (pH 7.4) for A2A adenosine receptors, in 50 mM Tris HCl, 10 mM MgCl2, 1 mM EDTA (pH 7.4) for A2B and A3 adenosine receptors.
All new synthesized compounds have been tested to evaluate their affinity to human A1, A2A, A2B and A3 adenosine receptors. Displacement experiments of [^3H]-DPCPX to CHO cells transfected with the human recombinant A1 adenosine receptors are performed for 120 min at 25° C. incubating diluted membranes (50 μg of protein/assay) and at least 6-8 different concentrations of examined antagonists (Varani et al., Mol. Pharmacol., 2000, 57: 968-975). Non-specific binding is determined in the presence of 10 μM of CHA and this is always ≦10% of the total binding. Binding of [^3H]-ZM 241385 to CHO cells transfected with the human recombinant A2A adenosine receptors is performed using a suspension of membranes (50 μg of protein/assay) and at least 6-8 different concentrations of studied antagonists for an incubation time of 60 min at 4° C. Non-specific binding is determined in the presence of 1 μM ZM 241385 and is about 20% of total binding. Competition binding experiments of [^3H]-MRE 2029F20 to CHO cells transfected with the human recombinant A2B adenosine receptors are carried out incubating for 120 min at 4° C. diluted membranes (50 μg of protein/assay) and at least 6-8 different concentrations of examined compounds. Non-specific binding is defined as binding in the presence of 1 μM MRE 3029F20 and is about 25% of total binding. Competition binding experiments of [^3H]-MRE 3008F20 to CHO cells transfected with the human recombinant A3 adenosine receptors^5 are carried out incubating for 120 min at 4° C. diluted membranes (50 μg of protein/assay) and at least 6-8 different concentrations of examined ligands. Non-specific binding is defined as binding in the presence of 1 μM MRE 3008F20 and is about 25% of total binding. Bound and free radioactivity are separated by filtering the assay mixture through Whatman GF/B glass fiber filters using a Micro-Mate 196 cell harvester (Packard Instrument Co.). The filter bound radioactivity is counted on a Top Count (efficiency 57%) with Micro-Scint 20.
The protein concentration is determined according to a Bio-Rad method (Bradford, Anal Biochem. 1976, 72: 248-254) with bovine albumin as a standard reference. Inhibitory binding constant, Ki, values are calculated from those of IC50 according to Cheng & Prusoff equation (Biochem. Pharmacol 1973, 22: 3099-3108): Ki=IC50/(1+[C*]/KD*) where [C*] is the concentration of the radioligand and KD* its dissociation constant. A weighted non linear least-squares curve fitting program LIGAND (Munson et al., Anal. Biochem 1980, 107: 220-239) is used for computer analysis of inhibition experiments Data are expressed as geometric mean with 95% confidence limits in parentheses. Examples of Animal Models

Row | Structure (SMILES) | Ki [nM]
1 | CCCn1c(=O)c2[nH]c(-c3cc(C)n(CC(=O)Nc4ccc(I)cc4)n3)nc2n(CCC)c1=O [Example 2, 2-[3-(2,6-Dioxo-1,3-dipropyl-2,3,6,7-tetrahydro-1H-purin-8-yl)-5-methyl-pyrazol-1-yl]-N-(4-iodophenyl)-acetamide] | > 1000
2 | CCCn1c(=O)c2[nH]c(-c3cc(C)n(CC(=O)Nc4ccc(F)cc4)n3)nc2n(CCC)c1=O [Example 5, 2-[3-(2,6-Dioxo-1,3-dipropyl-2,3,6,7-tetrahydro-1H-purin-8-yl)-5-methyl-pyrazol-1-yl]-N-(4-fluoro-phenyl)-acetamide] | 500
3 | CCCn1c(=O)c2[nH]c(-c3cc(C)n(CC(=O)Nc4ccc(OC)cc4)n3)nc2n(CCC)c1=O [Example 6, 2-[3-(2,6-Dioxo-1,3-dipropyl-2,3,6,7-tetrahydro-1H-purin-8-yl)-5-methyl-pyrazol-1-yl]-N-(4-methoxyphenyl)-acetamide] | > 1000
4 | CCCn1c(=O)c2[nH]c(-c3cc(C)n(CC(=O)Nc4ccc(C)c(C)c4)n3)nc2n(CCC)c1=O [Example 7, 2-[3-(2,6-Dioxo-1,3-dipropyl-2,3,6,7-tetrahydro-1H-purin-8-yl)-5-methyl-pyrazol-1-yl]-N-(3,4-dimethylphenyl)-acetamide] | > 1000
5 | CCCn1c(=O)c2[nH]c(-c3cc(C)n(CC(=O)Nc4ccc(Cl)c(Cl)c4)n3)nc2n(CCC)c1=O [Example 16, 2-[3-(2,6-Dioxo-1,3-dipropyl-2,3,6,7-tetrahydro-1H-purin-8-yl)-5-methyl-pyrazol-1-yl]-N-(3,4-dichlorophenyl)-acetamide] | > 1000
6 | CCCn1c(=O)c2[nH]c(-c3nn(CC(=O)Nc4ccc(Cl)cc4)c(C)c3Cl)nc2n(CCC)c1=O [Example 18, 2-[4-Chloro-3-(2,6-dioxo-1,3-dipropyl-2,3,6,7-tetrahydro-1H-purin-8-yl)-5-methyl-pyrazol-1-yl]-N-(4-chlorophenyl)-acetamide] | > 1000

Now from value to compound:

Row | Ki [nM] | Structure (SMILES)
7 | 350 | CCCn1c(=O)c2[nH]c(-c3cc(C)n(CC(=O)Nc4ccccc4)n3)nc2n(CCC)c1=O [Example 1, 2-[3-(2,6-Dioxo-1,3-dipropyl-2,3,6,7-tetrahydro-1H-purin-8-yl)-5-methyl-pyrazol-1-yl]-N-phenyl-acetamide]
8 | > 1000 | CCCn1c(=O)c2[nH]c(-c3cc(C)n(CC(=O)Nc4ccc(OC)c(OC)c4)n3)nc2n(CCC)c1=O [Example 8, 2-[3-(2,6-Dioxo-1,3-dipropyl-2,3,6,7-tetrahydro-1H-purin-8-yl)-5-methyl-pyrazol-1-yl]-N-(3,4-dimethoxyphenyl)-acetamide]
9 | 140 | CCCn1c(=O)c2[nH]c(-c3ccn(CC(=O)Nc4ccc(Cl)cc4)n3)nc2n(CCC)c1=O [Example 10, 2-[3-(2,6-Dioxo-1,3-dipropyl-2,3,6,7-tetrahydro-1H-purin-8-yl)-pyrazol-1-yl]-N-(4-chloro-phenyl)-acetamide]
10 | > 1000 | CCCn1c(=O)c2[nH]c(-c3cc(C)n(CC(=O)Nc4ccc(C(C)CC)cc4)n3)nc2n(CCC)c1=O (centres unmarked) [Example 12, 2-[3-(2,6-Dioxo-1,3-dipropyl-2,3,6,7-tetrahydro-1H-purin-8-yl)-5-methyl-pyrazol-1-yl]-N-(4-sec-butylphenyl)-acetamide]
11 | 480 | CCCn1c(=O)c2[nH]c(-c3cc(C)n(CC(=O)Nc4cccc(OC)c4)n3)nc2n(CCC)c1=O [Example 14, 2-[3-(2,6-Dioxo-1,3-dipropyl-2,3,6,7-tetrahydro-1H-purin-8-yl)-5-methyl-pyrazol-1-yl]-N-(3-methoxylphenyl)-acetamide]
12 | 675 | CCCn1c(=O)c2[nH]c(-c3cc(C)n(CC(=O)Nc4cccc(Cl)c4)n3)nc2n(CCC)c1=O [Example 15, 2-[3-(2,6-Dioxo-1,3-dipropyl-2,3,6,7-tetrahydro-1H-purin-8-yl)-5-methyl-pyrazol-1-yl]-N-(3-chlorophenyl)-acetamide]
13 | > 1000 | CCCn1c(=O)c2[nH]c(-c3cc(C)n(CC(=O)Nc4ccc(C)cc4)n3)nc2n(CCC)c1=O [Example 17, 2-[3-(2,6-Dioxo-1,3-dipropyl-2,3,6,7-tetrahydro-1H-purin-8-yl)-5-methyl-pyrazol-1-yl]-N-p-tolyl-acetamide]
14 | > 1000 | CCCn1c(=O)c2[nH]c(-c3nn(CC(=O)Nc4ccc(Cl)cc4)c(C)c3Br)nc2n(CCC)c1=O [Example 19, 2-[4-Bromo-3-(2,6-dioxo-1,3-dipropyl-2,3,6,7-tetrahydro-1H-purin-8-yl)-5-methyl-pyrazol-1-yl]-N-(4-chlorophenyl)-acetamide]

Source: US7767685B2, “Adenosine A2B receptor antagonists” (King Pharmaceuticals Research and Development, Inc., priority 2006, dated 2010)
